# According to patent publication US3954780A, “Propionic acid derivatives” (Innothera, priority 1970, dated 1976):
# “And” between values parts separate entries of the source, which are not always exact repeats. Identical values can stand only once. Counter-ions that a name gives are not always drawn.
# Columns and labels:
# [1] = test system: isolated rat duodenum; test: Spasmolytic activity of papaverinic type, barium chloride contracture; settings: Tyrode 38°; for EC50: read-out: Spasmolytic activity Papaverinic type DE 50 (converted)
# Method: a. To show activity of the papaverinic type, the contracturant used is barium chloride acting on the isolated rat duodenum.
# The average activity of the substances studied has been effected by determining graphically their DE 30 and DE 50 these being expressed in μg for 20 ml of bath.
# [2] = test system: isolated ileum of the guinea-pig; test: Spasmolytic activity of atropinic type, acetylcholine chloride contracture; settings: Tyrode 33°; for EC50: Cavia porcellus, read-out: Spasmolytic activity Atropinic type DE 50 (converted)
# Description: b. To show activity of atropinic type the contracturant used is acetylcholine chloride acting on the isolated ileum of the guinea-pig. […]
# [3] = test system: skin reflex; test: Local anaesthetic activity, conduction anaesthesia (method of Moukhtar); assay type: in vivo; settings: procaine hydrochloride 0.50 g/100 ml, intradermal 0.20 ml; hydrochloride
# Description: The method of MOUKHTAR has been chosen to show the activity of the derivatives studied on conduction anaesthesia (A. MOUKHTAR, C.R. Soc. Biol. 1909-66-187,189).
# The reference local anaesthetic substance used in the tests has in each case been procaine hydrochloride in 0.5% solution in an 0.9% isotonic solution of NaCl. The three concentrations used to study the local anaesthetic activity of the new derivatives are 0.50, 0.25 and 0.10%, the vehicle being the isotonic 0.9% solution of NaCl.
# The average anaesthetic activity of the substances chosen is expressed comparatively to that of the reference product chosen, by calculating the ratio of the average number n of the stimulations necessary to obtain the appearance of the skin reflex in the case of the derivatives studied, to the average number (n') of the stimulation determined for the reference substance.
# The procaine hydrochloride and the derivatives studied are administered by the intradermal route at the rate of 0.20 ml per injection.
SMILES,Spasmolytic activity Papaverinic type DE 30 [1],EC50 [1] [µg/mL],EC50 [2] [µg/mL],Spasmolytic activity Atropinic type DE 30 [2],average number of stimulations for procaine hydrochloride n' [3]
O=C(OCCN1CCCCC1)C(Cc1ccccc1)Cc1csc2ccccc12 (stereo not shown) [Compound 27],6.0 μg for 20 ml of bath,0.6,–,–,–
O=C(OCCN1CCCCCC1)C(Cc1ccccc1)Cc1csc2ccccc12 (stereo not shown) [Compound 28],6.5 μg for 20 ml of bath,0.7,250,750 μg/20 ml of bath,–
CN(C)CCCOC(=O)C(Cc1ccccc1)Cc1csc2ccccc12 (stereo not shown) [Compound 29],4.0 μg for 20 ml of bath,0.425,5,45 μg/20 ml of bath,–
CCN(CC)CCCOC(=O)C(Cc1ccccc1)Cc1csc2ccccc12 (stereo not shown) [Compound 30],6.0 μg for 20 ml of bath,0.65,–,–,–
O=C(OCCCN1CCCC1)C(Cc1ccccc1)Cc1csc2ccccc12 (stereo not shown) [Compound 31],16.0 μg for 20 ml of bath,1.4,3.25,40 μg/20 ml of bath,–
O=C(OCCCN1CCCCC1)C(Cc1ccccc1)Cc1csc2ccccc12 (stereo not shown) [Compound 32],4.5 μg for 20 ml of bath,0.475,–,–,–
O=C(OCCCN1CCCCCC1)C(Cc1ccccc1)Cc1csc2ccccc12 (stereo not shown) [Compound 33],4.0 μg for 20 ml of bath,0.425,–,–,–
CC(CN1CCCC1)OC(=O)C(Cc1ccccc1)Cc1csc2ccccc12 (stereo not shown) [Compound 34],8.0 μg for 20 ml of bath,0.8,–,–,–
CCN(CC)CCOC(=O)C(Cc1cccs1)Cc1csc2ccccc12 (stereo not shown) [Compound 36],8.5 μg for 20 ml of bath,1,1.4,14 μg/20 ml of bath,–
O=C(OCCN1CCCCC1)C(Cc1cccs1)Cc1csc2ccccc12 (stereo not shown) [Compound 38],6.0 μg for 20 ml of bath,0.8,10,95 μg/20 ml of bath,–
O=C(OCCN1CCOCC1)C(Cc1cccs1)Cc1csc2ccccc12 (stereo not shown) [Compound 39],43.0 μg for 20 ml of bath,4,–,–,–
CN(C)CCCOC(=O)C(Cc1cccs1)Cc1csc2ccccc12 (stereo not shown) [Compound 41],4.3 μg for 20 ml of bath,0.525,2.3,24 μg/20 ml of bath,–
O=C(OCCCN1CCCCC1)C(Cc1cccs1)Cc1csc2ccccc12 (stereo not shown) [Compound 44],5.5 μg for 20 ml of bath,0.4,3.5,30 μg/20 ml of bath,–
O=C(OCCCN1CCCCCC1)C(Cc1cccs1)Cc1csc2ccccc12 (stereo not shown) [Compound 45],14.0 μg for 20 ml of bath,1.35,–,–,–
CC(CN1CCCC1)OC(=O)C(Cc1cccs1)Cc1csc2ccccc12 (stereo not shown) [Compound 46],2.5 μg for 20 ml of bath,0.5,0.9,6.5 μg/20 ml of bath,–
CN(C)CCOC(=O)C(Cc1csc2ccccc12)CC1CCCO1 (stereo not shown) [Compound 47],9.0 μg for 20 ml of bath,0.75,–,–,–
CCN(CC)CCOC(=O)C(Cc1csc2ccccc12)CC1CCCO1 (stereo not shown) [Compound 48],6.0 μg for 20 ml of bath,1.25,0.9,10 μg/20 ml of bath,–
CN(C)CCCOC(=O)C(Cc1csc2ccccc12)CC1CCCO1 (stereo not shown) [Compound 52],8.0 μg for 20 ml of bath,0.7,–,–,–
O=C(OCCCN1CCCCCC1)C(Cc1csc2ccccc12)CC1CCCO1 (stereo not shown) [Compound 56],10.0 μg for 20 ml of bath,0.8,–,–,–
"CN1C2CCC1CC(OC(=O)C(CO)c1ccccc1)C2 (stereo not shown) [atropine sulphate, reference compound]",–,–,≤ 0.005,–,–
"CCN(CC)CCOC(=O)c1ccc(N)cc1 [procaine hydrochloride, reference compound]",–,–,–,–,30.5 and 33.9 and 36.0 and 27.2 and 29.5 and 29.2 and 33.7 and 28.2
